Target: PC4 and SFRS1-interacting protein (Homo sapiens, UniProt O75475)
Sequence (O75475 whole entry): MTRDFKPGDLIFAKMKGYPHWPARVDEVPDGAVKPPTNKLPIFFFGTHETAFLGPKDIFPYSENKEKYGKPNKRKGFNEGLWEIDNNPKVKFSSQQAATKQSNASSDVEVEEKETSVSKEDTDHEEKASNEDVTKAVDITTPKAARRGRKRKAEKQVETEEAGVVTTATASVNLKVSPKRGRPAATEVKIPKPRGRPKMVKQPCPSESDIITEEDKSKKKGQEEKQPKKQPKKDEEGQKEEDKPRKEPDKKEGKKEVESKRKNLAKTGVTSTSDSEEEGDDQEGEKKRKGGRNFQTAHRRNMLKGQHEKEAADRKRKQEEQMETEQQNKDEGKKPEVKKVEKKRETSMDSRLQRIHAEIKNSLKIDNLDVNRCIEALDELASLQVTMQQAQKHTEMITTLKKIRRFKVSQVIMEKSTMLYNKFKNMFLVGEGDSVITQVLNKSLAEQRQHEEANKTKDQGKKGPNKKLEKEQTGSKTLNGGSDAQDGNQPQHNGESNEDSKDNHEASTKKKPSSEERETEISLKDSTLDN
Description: Binding affinity to N-terminal His10-tagged LEDGF/P75 PWWP domain (1 to 110 residues) (unknown origin) expressed in Escherichia coli assessed as dissociation constant incubated for overnight by NMR analysis

Structure (SMILES) | Kd [µM]
NCc1cncc(Br)c1 | 216
CCS(=O)(=O)c1ccc(C2CCCCN2)cc1 (stereo unspecified) | 526
CCS(=O)(=O)c1ccccc1NC(=O)CCl | 700

Further compounds by falling Kd, results first:

Kd [µM] | Structure (SMILES)
590 | CCS(=O)(=O)c1ccccc1NC(=O)COc1cccc(CC(=O)O)c1
363 | NC(=O)CCN1CCCC1c1ccccc1 (stereo unspecified)
147 | Nc1ccc(CNCc2cncc(Br)c2)cc1

— ChEMBL document CHEMBL6083267, “Rational fragment-based design of compounds targeting the PWWP domain of the HRP family” (Eur J Med Chem, 2024)
